Experimental data as given in patent publication US20230340417A1, “DEFINED MATRIX FOR THE DIFFERENTIATION OF ISLETS” (Washington University, priority 2022, published 2023).
Entries after “also recorded” stand apart in the source; their conditions may differ.

What was measured:
[1] = tested on: stem cells; experiment: Adhesion of cells to plates coated with different extracellular matrix proteins during differentiation; format: cell-based, human; conditions: for adherence of seeding stem cells to the ECM to start differentiation: FIG. 11; for attachment of cells to the plate in early differentiation stages: stage 1 and 2, ECM protein used alone; for time at which cells came off the plate: stage/day of protocol (s = stage, d = day)
Description: (§1) Experiment goal: test if our SC-β cell differentiation method works with different extracellular matrix proteins. Stem cells were propagated on Matrigel as normal. Cells were plated on the different ECMs when seeding the differentiations. For the combinations of laminin 111 and collagen IV, the total protein concentration was kept the same. The ratio of these was changed from 3:1, 1:1, and 1:3. Some of the ECMs induced the cells to form clusters on the plate in stage 6, so some clusters were scrapped off instead of aggregating them for comparison. The differentiation protocol utilized was previously published (Hogrebe et al Nature Biotechnology 2020; Hogrebe et al Nature Protocols 2021; and WO 2019/222487) and modified to include different ECM proteins.

[2] = tested on: human pluripotent stem cells; experiment: SC-β cell differentiation on different extracellular matrix proteins; format: cell-based; conditions: for outcome of differentiation of stem cells to SC-β cells: cells plated on the ECM when seeding the differentiation
Description: as §1

For “collagen 1: extracellular matrix protein tested as plate coating for differentiation”, the “adherence of seeding stem cells to the ECM to start differentiation” value (from here on “adherence … to start differentiation”) [1] was “weren't as adhesive”, the “attachment of cells to the plate in early differentiation stages” value (shortened to “attachment … in early differentiation stages”) [1] was “detached completely” and the “attachment … in early differentiation stages” value ([1]; listed as collagen I) was “monolayer of stem cells detaching from the plate”. The “time at which cells came off the plate” value [1] was “came off on s2d1”.

With “collagen IV: extracellular matrix protein tested as plate coating, alone or combined with laminin 111” the “attachment … in early differentiation stages” value [1] was “detached completely; also recorded: monolayer of stem cells detaching from the plate”, the “adhesion of endocrine cells to the plate” value ([1]; stage 6) was “makes the endocrine cells stick to the plate” and the “time at which cells came off the plate” value [1] was “started coming off on s1d3”.

fibronectin was tested, and the “adherence … to start differentiation” value [1] was “do not effectively adhere” and the “outcome of differentiation of stem cells to SC-β cells” value [2] was “failed”.

B1: vitronectin: extracellular matrix protein tested as plate coating for differentiation (protein, UniProt P04004 20-478, looked up)
Vitronectin: DQESCKGRCTEGFNVDKKCQCDELCSYYQSCCTDYTAECKPQVTRGDVFTMPEDEYTVYDDGEEKNNATVHEQVGGPSLTSDLQAQSKGNPEQTPVLKPEEEAPAPEVGASKPEGIDSRPETLHPGRPQPPAEEELCSGKPFDAFTDLKNGSLFAFRGQYCYELDEKAVRPGYPKLIRDVWGIEGPIDAAFTRINCQGKTYLFKGSQYWRFEDGVLDPDYPRNISDGFDGIPDNVDAALALPAHSYSGRERVYFFKGKQYWEYQFQHQPSQEECEGSSLSAVFEHFAMMQRDSWEDIFELLFWGRTSAGTRQPQFISRDWHGVPGQVDAAMAGRIYISGMAPRPSLAKKQRFRHRNRKGYRSQRGHSRGRNQNSRRPSRATWLSLFSSEESNLGANNYDDYRMDWLVPATCEPIQSVFFFSGDKYYRVNLRTRRVDTVDPPYPRSIAQYWLGCPAPGHL
With B1 the “adherence … to start differentiation” value [1] was “do effectively adhere”, the “outcome of differentiation of stem cells to SC-β cells” value [2] was “failed” and the cell types obtained ([2]; differentiations done on vitronectin only, FIG. 12) was “a lot of off-target cell types and no endocrine cells”.
